Entries after “also recorded” stand apart in the source; their conditions may differ.
Assays:
[1] = tested on: A‐673 cells; test: Cell viability assay (XTT), A‐673 cells; format: cell-based, human
Experimental: (§1) AsPC‐1, A‐673, and TC‐71 cells were seeded in 96‐well plates (800 cells/well for AsPC‐1, 2000 cells/well for A‐673, and 400 cells/well for TC‐71) and cultured overnight. Vehicle (DMSO) or a test compound diluted with the medium was then added to the wells (final DMSO concentration was 0.3%), and 72 h later, 2,3‐bis[2‐methoxy‐4‐nitro‐5‐sulfophenynl]‐2H‐tetrazolium‐5‐carboxanilide inner salt (XTT) reagent (Roche Diagnostics, Mannheim, Germany) was added to the medium. After 3‐h incubation at 37°C, the formation of the formazan dye was determined by measuring absorbance at 490 and 650 nm using a SpectraMax 340PC system (Molecular Devices, Sunnyvale, CA, USA).

[2] = tested on: TC‐71 cells; test: Cell viability assay (XTT), TC‐71 cells; format: cell-based, human; details: 72 h
Experimental: as §1

[3] = target: T1, DHODH (Homo sapiens, UniProt Q02127); test: DHODH inhibition assay, A‐673 mitochondria fraction (orotic acid production, LCMSMS); format: biochemical; details: read-out: IC50 for orotic acid production through DHODH
T1 construct: The mitochondria fraction was isolated from A‐673 cells using Q proteome Mitochondria Isolation kit; endogenous in cells; host or cells: A-673 cells, mitochondria fraction
Experimental: The mitochondria fraction was isolated from A‐673 cells using Q proteome Mitochondria Isolation kit (QIAGEN, Hilden, Germany). The protein concentration of the fraction was determined using the DC‐protein assay kit (Bio‐Rad Laboratories, Hercules, CA, USA) with bovine serum albumin (Sigma‐Aldrich) as the standard. […] The reaction was quenched by adding 120 μL of 3 μM 5‐fluoroorotic acid acetonitrile solution. These samples were then centrifuged at 5000 g for 5 min to precipitate proteins, and the supernatant was collected. The samples were diluted 10‐fold with 70% acetonitrile‐water and subjected to liquid chromatography with tandem mass spectrometry (LCMSMS). The analyte was then separated on a hydrophilic interaction chromatography column (PC‐HILIC; 5 μm, 4.6 mm I.D. × 50 mm; Osaka Soda, Osaka, Japan). LCMSMS detection was performed by electrospray ionization in negative ion mode.

[4] = tested on: A‐673 cell‐derived tumors; test: A‐673 xenograft in SCID mice; format: in vivo, mouse
Experimental: (§2) All animal studies were performed in accordance with Standards for Proper Conduct sof Animal Experiments at Kyowa Kirin Co., Ltd., under the approval of the company's Institutional Animal Care and Use Committee. Male C.B17/Icr‐scid/scidJcl (SCID) mice (5 weeks old) were purchased from CREA Japan (Tokyo, Japan). K‐733 was suspended in 0.5% (w/v) methylcellulose 400 (MC400; FUJIFILM Wako Pure Chemical) and orally administered to mice once daily. Ewing's cells were suspended in Dulbecco's phosphate‐buffered saline (DPBS; Thermo Fisher Scientific, Waltham, MA, USA) and injected subcutaneously into the ventral side of mice at 5 × 10^6 cells/0.1 mL/mouse for A‐673 and TC‐71 and 1 × 10^7 cells/0.1 mL/mouse for CADO‐ES1 and SK‐ES‐1. In experiments using TC‐71 cells, 0.3 mg of anti‐asialo GM1 antibody (FUJIFILM Wako Pure Chemical) was injected intraperitoneally 1 day before TC‐71 injection. The tumor size and body weight were measured every 3 or 4 days. The tumor volume was calculated using the following equation: Tumor volumemm^3=DL×DS×DS×1/2, where DL and DS represent the long diameter and short diameter, respectively. The pharmacokinetic analysis of K‐733 is described in Materials and Methods S2.

[5] = tested on: TC‐71‐derived tumors; test: TC‐71 xenograft in SCID mice; format: in vivo, mouse; details: 10, 30, or 100 mg/kg orally once daily; less sensitive than others
Experimental: as §2

[6] = tested on: SK‐ES‐1; test: SK‐ES‐1 xenograft in SCID mice; format: in vivo, mouse; details: 10, 30, or 100 mg/kg orally once daily
Experimental: as §2

[7] = tested on: CADO‐ES1; test: CADO‐ES1 xenograft in SCID mice; format: in vivo, mouse; details: 10, 30, or 100 mg/kg orally once daily
Experimental: as §2

[8] = Plasma concentration‐time profile after single oral administration; format: in vivo, mouse; details: BALB/c mice
Experimental: First, we evaluated the plasma concentration‐time profile of K‐733 after single oral administration at dose ranges from 1 to 100 mg/kg in BALB/c mice (donors of SCID mice) for dose selection (Figure 8A). […] Therefore, we selected dose ranges from 10 to 100 mg/kg for in vivo studies.
Male BALB/cAnNCrlCrlj mice (6 weeks old) were purchased from Jackson Laboratories Japan (Yokohama, Japan). K-733, suspended in 0.5% (w/v) MC400 was orally administered at 1, 3, 10, and 100 mg/kg (n=2), and blood samples were collected from the tail vein at 0.5, 1, 2, 4, 7 and 24 h after administration. Mice were euthanized with carbon dioxide inhalation after the final blood sampling. Plasma was separated and stored frozen until use. The plasma concentration of K-733 was determined by liquid chromatography with tandem mass spectrometry (LC-MS). Plasma samples were pre-treated for protein precipitation, and the supernatant was subjected to liquid LC-MS. The analyte was separated on a C18 reverse-phase column (CAPCELL PAK C18 MG 3 μm, 3 mm I.D. × 35 mm; Osaka Soda). LC-MS detection was performed by electrospray ionization in a positive ion mode. The detected mass-to-charge ratio of K-733 was 482.95/92.75 (Q1/Q3). The lower limit of quantification (LLOQ) was 10 nM.

T1 sequence (Q02127 whole entry): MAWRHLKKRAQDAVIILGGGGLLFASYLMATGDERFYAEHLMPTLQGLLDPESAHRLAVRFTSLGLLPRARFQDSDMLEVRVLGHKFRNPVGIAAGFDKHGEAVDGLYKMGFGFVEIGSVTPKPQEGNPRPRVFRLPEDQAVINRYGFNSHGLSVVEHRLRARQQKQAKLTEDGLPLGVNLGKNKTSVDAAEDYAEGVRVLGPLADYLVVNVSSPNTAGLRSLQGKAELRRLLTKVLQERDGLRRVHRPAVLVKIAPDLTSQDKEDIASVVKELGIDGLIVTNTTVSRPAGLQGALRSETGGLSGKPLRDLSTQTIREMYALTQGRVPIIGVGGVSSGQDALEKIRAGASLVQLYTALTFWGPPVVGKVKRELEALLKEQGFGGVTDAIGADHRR

## Cc1nc(-c2ccc(C3c4[nH]c5ccc(Cl)cc5c4CCN3C(=O)Oc3ccccc3)cc2)no1 (stereo not drawn) [K-733, phenyl 6‐chloro‐1‐(4‐(5‐methyl‐1,2,4‐oxadiazol‐3‐yl)phenyl)‐1,3,4,9‐tetrahydro‐2H‐pyrido[3,4‐b]indole‐2‐carboxylate]
[1]; 72 h
  Cell viability of A‐673 cells: decreased the viability
[1]; Homo sapiens, A673, 50% growth inhibition concentration, A‐673 cells
  GI50: 6.11 nM
[2]
  Cell viability of TC‐71 cells: decreased the viability
[3]
  IC50: 0.953 nM
[4]; 100 mg/kg orally once daily, A‐673 tumors
  Treatment per control ratio (T/C), greatest change: 0.38
[4]; 10, 30, or 100 mg/kg orally once daily up to 14 days
  Tumor volume, A‐673 xenograft: reduced; also recorded: inhibited tumor growth
[4]; A‐673‐bearing mice, up to 100 mg/kg orally once daily
  Body weight: without a body weight loss; also recorded: without affecting body weight gain
[5]
  Tumor growth, TC‐71 xenograft: reduced dose‐dependently
[6]
  Tumor growth, SK‐ES‐1 xenograft: reduced dose‐dependently
[7]
  Tumor growth, CADO‐ES1 xenograft: reduced dose‐dependently
[8]; single oral 1 to 100 mg/kg
  Plasma concentration, dose dependence: increased dose‐dependently
[8]; single oral ≥10 mg/kg
  Plasma concentration relative to IC50 (DAX1 reporter and DHODH inhibition): higher than the IC50 value

Source: paper PMC10166890, “Screening for DAX1/EWS‐FLI1 functional inhibitors identified dihydroorotate dehydrogenase as a therapeutic target for Ewing's sarcoma” (Cancer Medicine, 2023)
